Assays:
[1] = test system: HEK293G cells stably expressing SNAP-CXCR4; experiment: Confocal microscopy of fluorescent ligand binding; assay type: cell-based, human; conditions: for localisation of fluorescence in cells: 30 min at 37 °C; for membrane fluorescence after pretreatment with IT1t or AMD3100: 10 μM IT1t or 10 μM AMD3100, 30 min pre-incubation; for binding after treatment with AMD3100: 10 μM AMD3100, 30 min pre-incubation
Description: HEK293G-SNAP-CXCR4 cells were seeded onto poly-D-lysine-coated (10 μg/mL) 8-well Nunc Lab-tek chambered coverglass (no. 1.0 borosilicate glass bottom) in DMEM supplemented with 10% FCS at a density of 30,000 cells per well. The following day, media were replaced with fresh media supplemented with 10% FCS containing 0.5 μM SNAP-Surface Alexa Fluor 488 (New England Biolabs, Hitchin UK) for 30 min at 37 °C. […]
Cells were imaged on a Zeiss LSM880 with a Zeiss Axio Observer Z1 stand (Carl Zeiss, Germany) using a 40× C-apochromat NA1.2 water immersion objective. Excitation was via a 488 nm argon (to image SNAP-Surface Alexa Fluor 488) and 633 nm helium-neon (to image fluorescent ligands) laser lines with a 488/561/633 multibeam splitter and emission collected using a 493–628 nm band pass or 638–737 nm band pass. The pinhole was set at 1 Airy unit for the longer wavelength and laser power and gain and offset settings kept constant within the experiment to allow comparison. Equatorial plane images were made and four images were captured per condition per experiment using ZEN 2012 software (Carl Zeiss, Germany). Imaging of each ligand was performed at least three times.

[2] = target: T1, NLuc-CXCR4 (Homo sapiens, UniProt P61073); assay type: binding
T1 construct: expressed in transfected cells; membranes prepared from them
T1 sequence (P61073 whole entry): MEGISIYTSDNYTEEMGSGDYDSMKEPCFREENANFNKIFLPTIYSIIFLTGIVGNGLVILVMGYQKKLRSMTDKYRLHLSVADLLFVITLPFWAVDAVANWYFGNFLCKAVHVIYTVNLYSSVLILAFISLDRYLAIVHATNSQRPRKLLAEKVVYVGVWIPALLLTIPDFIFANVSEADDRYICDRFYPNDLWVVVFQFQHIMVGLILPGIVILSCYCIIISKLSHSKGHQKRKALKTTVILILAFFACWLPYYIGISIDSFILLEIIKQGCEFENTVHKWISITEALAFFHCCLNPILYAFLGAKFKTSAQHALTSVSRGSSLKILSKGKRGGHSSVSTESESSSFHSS
Description: In white clear-bottom 96-well plates or white opaque bottom 96-well plates, membranes expressing NLuc-CXCR4 were diluted to 10 μg per well in 20 μL of HBSS containing 0.2% BSA. […] Plates were then incubated in the dark for 2 h at 37 °C in the absence of CO2. The NLuc substrate furimazine (Promega Corporation) was then added (5 μL per well, 10 μM final concentration) and the plates were read using the PHERAstar FS plate reader (BMG Labtech, UK) at room temperature. The filtered light from each well was simultaneously measured using a 460 nm (80 nm band-pass filter) for NLuc emission and >610 nm longpass filter for fluorescence emission of BODIPY 630/650-X coupled ligands. For BODIPY-FL-X coupled ligands, emissions were simultaneously measured at 475 nm (30 nm band-pass filter; NLuc emission) and 535 nm (30 nm bandpass filter; BODIPY FL-X emission). The resulting raw BRET ratio was calculated by dividing the >610 nm emission (for red ligands) or the 535 nm emission (for green ligands) by the emissions measured for NLuc. […]

Row | Molecule | localisation of fluorescence in cells ([1]; 100 nM ligand) | membrane fluorescence after pretreatment with IT1t or AMD3100 ([1]; 100 nM ligand) | localisation of fluorescence in cells ([1]; 50 nM ligand) | binding after treatment with AMD3100 ([1]; 50 nM ligand) | other results
1 | CC1(C)CN2C(CS/C(=N/[C@H]3CC[C@H](NC(=O)CCCCCNC(=O)COc4ccc(/C=C/C5=[N+]6C(=Cc7ccc(-c8cccs8)n7[B-]6(F)F)C=C5)cc4)CC3)NC3CCCCC3)=CSC2=N1 [Compound 10, (6,6-Dimethyl-5,6-dihydroimidazo[2,1-b]thiazol-3-yl)methyl (E)-N-Cyclohexyl-N′-((1R,4R)-4-(6-(2-(4-((E)-2-(5,5-difluoro-7-(thiophen-2-yl)-5H-4λ^4,5λ^4-dipyrrolo[1,2-c:2′,1′-f][1,3,2]diazaborinin-3-yl)vinyl)phenoxy)acetamido)hexanamido)cyclo-hexyl)carbamimidothioate] | localized membrane fluorescence and very little intracellular fluorescence | substantially reduced |  |  | 
2 | CN1\C(=C/C=C/C=C/C2=[N+](CCCCCC(=O)N[C@H]3CC[C@H](/N=C(/NC4CCCCC4)SCC4=CSC5=NC(C)(C)CN45)CC3)c3ccc(S(=O)(=O)[O-])cc3C2(C)C)C(C)(C)c2cc(S(=O)(=O)O)ccc21 [Compound 11, 1-(6-(((1R,4R)-4-(((Z)-(Cyclohexylamino) (((6,6-dimethyl-5,6-dihydroimidazo[2,1-b]thiazol-3-yl)methyl)thio)methylene)amino)cyclohexyl)amino)-6-oxohexyl)-3,3-dimethyl-2-((1E,3E)-5-((Z)-1,3,3-trimethyl-5-sulfoindolin-2-ylidene)penta-1,3-dien-1-yl)-3H-indol-1-ium-5-sulfonate] | highly localized to the cell membrane | completely prevented |  |  | 
3 | CN(Cc1ncc2ccccc2c1CCCNC(=O)CCCCCNC(=O)COc1ccc(/C=C/C2=[N+]3C(=Cc4ccc(-c5cccs5)n4[B-]3(F)F)C=C2)cc1)[C@H]1CCCc2cccnc21 [Compound 18a, (S,E)-6-(2-(4-(2-(5,5-Difluoro-7-(thiophen-2-yl)-5H-4λ^4,5λ^4-dipyrrolo[1,2-c:2′,1′-f][1,3,2]diazaborinin-3-yl)vinyl)phenoxy)acetamido)-N-(3-(3-((methyl(5,6,7,8-tetrahydroquinolin-8-yl)amino)methyl)isoquinolin-4-yl)propyl)hexanamide] |  |  | reasonable membrane fluorescence; however, intracellular fluorescence was also apparent | reduced binding to cell surface receptors | 
4 | O=C(CCCCCNC(=O)COc1ccc(/C=C/C2=[N+]3C(=Cc4ccc(-c5cccs5)n4[B-]3(F)F)C=C2)cc1)NCCCCN(Cc1nc2ccccc2[nH]1)[C@H]1CCCc2cccnc21 [Compound 24, (S,E)-N-(4-(((1H-Benzo[d]imidazole-2-yl)methyl) (5,6,7,8-tetrahydroquinolin-8-yl)amino)butyl)-6-(2-(4-(2-(5,5-difluoro-7-(thiophen-2-yl)-5H-4λ4,5λ4-dipyrrolo [1,2-c:2′,1′-f][1,3,2]diazaborinin-3-yl)vinyl)phenoxy)acetamido)hexanamide] |  |  | reasonable membrane fluorescence; however, intracellular fluorescence was also apparent | reduced binding to cell surface receptors | 
5 | CXCL12: chemokine, the only endogenous ligand of CXCR4, purchased from PeproTech |  |  |  |  | concentration-dependent decrease of the BRET signal [2]: not; displacement of fluorescently labeled CXCL12 [2]: fully displaced
